9 molecules from publication PMC12396409, “Screening and hit evaluation of a microbial metabolite library against the pathogenic Plasmodium falciparum and Toxoplasma gondii parasites” (International Journal for Parasitology: Drugs and Drug …, 2025) can be followed below.

Where two headings read alike, the source gives them in different places. Where only a bound is given, the exact number is not on record here.

The test system of assay [1] is P. falciparum 3D7 parasites. Nature of the assay: P. falciparum growth inhibition assay, 2-cycle (120 h treatment), delayed-death screen and dose-response. The note with it: for activity at 2 µg/mL: Plasmodium falciparum, 3D7, 120 h. Type of assay: cell-based, Plasmodium falciparum.
Assay [2] deals with T. gondii RH strain (RH-Tub-eYFP) tachyzoites. The experiment in a line: microbe, parasite or virus in culture. Format: cell-based, Toxoplasma gondii. The note with it: 72 h; for percent parasite growth at 2 µg/mL: Toxoplasma gondii.
The test system of assay [3] is P. falciparum 3D7 parasites. Nature of the assay: P. falciparum growth inhibition assay, 1-cycle (72 h treatment), SYBR DNA staining (library screen at 2 μg/mL and dose-response). Type of assay: cell-based, Plasmodium falciparum. Conditions: for activity at 2 µg/mL: Plasmodium falciparum, 3D7, 72 h.
Where [4] appears, read: library screen at 2 μg/mL, 120 h, % growth, replicate 1.
The mark [5] stands for this setting: library screen at 2 μg/mL, 120 h, % growth, replicate 2.
Setting [6] is: library screen at 2 μg/mL, % growth, replicate 1.
[7] abbreviates: library screen at 2 μg/mL, % growth, replicate 2.
[8] abbreviates: library screen at 2 μg/mL, 72 h, % growth, replicate 1.
The mark [9] stands for this setting: library screen at 2 μg/mL, 72 h, % growth, replicate 2.
[10] abbreviates: P. falciparum 3D7, 120 h, parasite screen at 2 μg/mL, % growth, replicate 1.
Where [11] appears, read: P. falciparum 3D7, 120 h, parasite screen at 2 μg/mL, % growth, replicate 2.
Where [12] appears, read: T. gondii, parasite screen at 2 μg/mL, % growth, replicate 1.
Where [13] appears, read: T. gondii, parasite screen at 2 μg/mL, % growth, replicate 2.
Setting [14] is: P. falciparum 3D7, 72 h, parasite screen at 2 μg/mL, % growth, replicate 1.
The mark [15] stands for this setting: P. falciparum 3D7, 72 h, parasite screen at 2 μg/mL, % growth, replicate 2.
Where [16] appears, read: P. falciparum, 120 h, parasite screen 2 μg/mL, % growth, replicate 1.
Setting [17] is: P. falciparum, 120 h, parasite screen 2 μg/mL, % growth, replicate 2.
The mark [18] stands for this setting: T. gondii, parasite screen 2 μg/mL, % growth, replicate 1.
Setting [19] is: T. gondii, parasite screen 2 μg/mL, % growth, replicate 2.
The mark [20] stands for this setting: P. falciparum, 72 h, parasite screen 2 μg/mL, % growth, replicate 1.
Where [21] appears, read: P. falciparum, 72 h, parasite screen 2 μg/mL, % growth, replicate 2.

In assay [1] (P. falciparum, 120 h, screen at 2 μg/mL, replicate 1), `C/C=C(\NC(=O)c1csc(-c2csc(-c3ccc4c(n3)-c3csc(n3)[C@H]([C@@H](C)O)NC(=O)c3csc(n3)[C@H](C(C)(C)O)NC(=O)c3csc(n3)/C(=C/C)NC(=O)[C@H]([C@@H](C)O)NC(=O)c3csc-4n3)n2)n1)C(=O)NC[C@@H](C)O` [Thiocillin I] registered a Pf_120h_%Growth_Rep1 of 9.85%. In assay [1] (P. falciparum, 120 h, screen at 2 μg/mL, replicate 2), this molecule returned a Pf_120h_%Growth_Rep2 of 7.39%. Moreover, in assay [2] (T. gondii, screen at 2 μg/mL, replicate 1), the Tg_72h_%Growth_Rep1 is 86.81%. In addition, in assay [2] (T. gondii, screen at 2 μg/mL, replicate 2), the Tg_72h_%Growth_Rep2 was 86.09%. The concentration for half-maximal inhibition (IC50) (usually the concentration needed to halve the response being measured) in assay [3] (3D7, 72 h treatment, mean ± S.D., n ≥ 3, read-out: IC50 (μM), P. falciparum) is 0.08 ± 0.008 µM; in assay [3] (72 h treatment, read-out: IC50, P. falciparum) it was below 0.2 µM. For the same molecule, the Pf_72h_%Growth_Rep1 in assay [3] (P. falciparum, 72 h, screen at 2 μg/mL, replicate 1) was 5.41%. Moreover, in assay [3] (P. falciparum, 72 h, screen at 2 μg/mL, replicate 2), the Pf_72h_%Growth_Rep2 is listed as -2.25%.

The molecule `CC(CCCCCCCCCCCCCCOC1OC(CO)C(O)C(O)C1O)C(O)=C1C(=O)C(C)N(C)C1=O` (centres unmarked) [Epicoccamide] registered a Pf_120h_%Growth_Rep1 in assay [1] (setting [4]) of 94.92%. In assay [1] (setting [5]), the Pf_120h_%Growth_Rep2 was 97.01%. The molecule also came in with a Tg_72h_%Growth_Rep1 in assay [2] (setting [6]) of 135.91%. This molecule also registered a Tg_72h_%Growth_Rep2 in assay [2] (setting [7]) of 106.99%. In assay [3] (setting [8]), this molecule returned a Pf_72h_%Growth_Rep1 of 87.59%. In assay [3] (setting [9]), the Pf_72h_%Growth_Rep2 amounted to 88.25%.

Regarding `O=C(O)/C=C/c1ccc(O)c(O)c1` [Caffeic acid], the activity at 2 µg/mL turned out to be 144% in assay [1] (P. falciparum, 120 h, screen at 2 μg/mL, replicate 1, read-out: Pf_120h_%Growth_Rep1); 88.4% in assay [1] (P. falciparum, 120 h, screen at 2 μg/mL, replicate 2, read-out: Pf_120h_%Growth_Rep2); 83.7% in assay [3] (P. falciparum, 72 h, screen at 2 μg/mL, replicate 1, read-out: Pf_72h_%Growth_Rep1); 86% in assay [3] (P. falciparum, 72 h, screen at 2 μg/mL, replicate 2, read-out: Pf_72h_%Growth_Rep2). For the same molecule, the percent parasite growth at 2 µg/mL in assay [2] (T. gondii, screen at 2 μg/mL, replicate 1, read-out: Tg_72h_%Growth_Rep1) was 101%; in assay [2] (T. gondii, screen at 2 μg/mL, replicate 2, read-out: Tg_72h_%Growth_Rep2), 88.3%.

`C=C1c2c(Cl)ccc(O)c2C(=O)C2=C(O)[C@]3(O)C(=O)C(C(N)=O)=C(O)[C@@H](N(C)C)[C@@H]3[C@@H](O)[C@H]12` [BIA-M1464] registered a Pf_120h_%Growth_Rep1 in assay [1] (P. falciparum 3D7, 120 h, library screen at 2 μg/mL, % growth, replicate 1) of 99.01%. The same molecule had a Pf_120h_%Growth_Rep2 in assay [1] (P. falciparum 3D7, 120 h, library screen at 2 μg/mL, % growth, replicate 2) of 114.33%. This molecule also returned a Tg_72h_%Growth_Rep1 in assay [2] (T. gondii RH, library screen at 2 μg/mL, % growth, replicate 1) of 124.80%. Moreover, the Tg_72h_%Growth_Rep2 in assay [2] (T. gondii RH, library screen at 2 μg/mL, % growth, replicate 2) is 96.61%. In assay [3] (P. falciparum 3D7, 72 h, library screen at 2 μg/mL, % growth, replicate 1), this molecule returned a Pf_72h_%Growth_Rep1 of 76.80%. Moreover, the Pf_72h_%Growth_Rep2 in assay [3] (P. falciparum 3D7, 72 h, library screen at 2 μg/mL, % growth, replicate 2) is 116.17%.

With `O=c1cc([O-])c1=O.[Na+]` [BIA-M1269], the Pf_120h_%Growth_Rep1 in assay [1] (setting [10]) came out at 98.81%. Also, in assay [1] (setting [11]), the Pf_120h_%Growth_Rep2 worked out at 138.01%. The same molecule had a Tg_72h_%Growth_Rep1 in assay [2] (setting [12]) of 105.46%. The molecule further yielded a Tg_72h_%Growth_Rep2 in assay [2] (setting [13]) of 100.53%. The molecule further displayed a Pf_72h_%Growth_Rep1 in assay [3] (setting [14]) of 85.51%. Besides, in assay [3] (setting [15]), the Pf_72h_%Growth_Rep2 is on record as 86.48%.

Consider `CN(N=O)C(=O)N[C@H]1C(O)O[C@H](CO)[C@@H](O)[C@@H]1O` (mixture of isomers) [Streptozotocin], for which the Pf_120h_%Growth_Rep1 in assay [1] (setting [16]) came out at 176.62%. Further, in assay [1] (setting [17]), the Pf_120h_%Growth_Rep2 came to 92.69%. This molecule also returned a Tg_72h_%Growth_Rep1 in assay [2] (setting [18]) of 87.36%. Also, in assay [2] (setting [19]), the Tg_72h_%Growth_Rep2 is 105.65%. Moreover, the Pf_72h_%Growth_Rep1 in assay [3] (setting [20]) came out at 87.59%. Besides, the Pf_72h_%Growth_Rep2 in assay [3] (setting [21]) is given as 86.69%.

The molecule `CC(C)=CC1CC(C)C2(CCC3(C)CC4C(C(=O)CC4(C)O)C(C=O)=CCC32)O1` (centres unmarked) [BIA-O1063] displayed a Pf_120h_%Growth_Rep1 in assay [1] (setting [10]) of 10.48%. The same molecule had a Pf_120h_%Growth_Rep2 in assay [1] (setting [11]) of 11.00%. The molecule also displayed a Tg_72h_%Growth_Rep1 in assay [2] (setting [12]) of 5.87%. Moreover, the Tg_72h_%Growth_Rep2 in assay [2] (setting [13]) is reported as 0.78%. Besides, the Pf_72h_%Growth_Rep1 in assay [3] (setting [14]) was 4.64%. In addition, the Pf_72h_%Growth_Rep2 in assay [3] (setting [15]) was 5.89%.

Turning to `COCCC[C@H]1O[C@@](O)([C@H](C)C2CC(OC)C(O)/C=C(C)/C=C(C)/C=C(/C)C(O[C@H]3O[C@H](C)[C@@H](OC)[C@H](O)[C@H]3O)C(C)/C=C(C)/C=C(OC)\C=C(/C)C(=O)O2)[C@H](OC)[C@@H](O)[C@]1(C)O[C@H]1C[C@H](O)[C@H](O[C@H]2C[C@@](C)(O)[C@H](O)[C@@H](C)O2)[C@@H](C)O1` (some centres unmarked) [Amycolatopsin B], the Pf_120h_%Growth_Rep1 in assay [1] (setting [4]) is 16.58%. In addition, in assay [1] (setting [5]), the Pf_120h_%Growth_Rep2 is recorded as 9.62%. In assay [2] (setting [6]), the Tg_72h_%Growth_Rep1 is 0.29%. This molecule displayed a Tg_72h_%Growth_Rep2 in assay [2] (setting [7]) of 0.85%. In addition, the Pf_72h_%Growth_Rep1 in assay [3] (setting [8]) stood at 44.61%. Also, the Pf_72h_%Growth_Rep2 in assay [3] (setting [9]) is 41.71%.

The molecule `CCCCCCCCCCCCCCCC(=O)C1=C(O)C(CO)OC1=O` (centres unmarked) [RK-682] showed a Pf_120h_%Growth_Rep1 in assay [1] (setting [16]) of 73.75%. The Pf_120h_%Growth_Rep2 in assay [1] (setting [17]) was 72.22%. This molecule registered a Tg_72h_%Growth_Rep1 in assay [2] (setting [18]) of 107.18%. The molecule further yielded a Tg_72h_%Growth_Rep2 in assay [2] (setting [19]) of 84.15%. Further, the Pf_72h_%Growth_Rep1 in assay [3] (setting [20]) was 82.69%. Also, in assay [3] (setting [21]), the Pf_72h_%Growth_Rep2 is 35.30%.
